Results on 2 molecules are retold here after ChEMBL document CHEMBL4321812, “Structure-based rational design of staurosporine-based fluorescent probe with broad-ranging kinase affinity for kinase panel application” (Bioorg Med Chem Lett, 2019).

The structures appear in SMILES notation.

A short description of experiment [1]: Binding affinity to recombinant human full-length N-terminal […] MKNK1 T334D mutant expressed in baculovirus expression system using RS peptide as substrate incubated for 1 hr by TR-FRET assay. For orientation: In TR-FRET formats the signal depends on donor and acceptor labels being close together.
Experiment [2] has as its target Ephrin type-A receptor 1 (Homo sapiens, UniProt P21709). Put plainly: Binding affinity to recombinant full-length N-terminal His-FLAG-GST-tagged EPHA1 (unknown origin) (586 to 976 residues) expressed in baculovirus infected Sf9 insect cells incubated for 1 hr by TR-FRET assay.
For experiment [3], the target named is High affinity nerve growth factor receptor (Homo sapiens, UniProt P04629). Put plainly: Binding affinity to recombinant full-length N-terminal His-FLAG-GST-tagged NTRK1 (unknown origin) (436 to 790 residues) expressed in baculovirus infected Sf9 insect cells incubated for 1 hr by TR-FRET assay.
The target of experiment [4] is Proto-oncogene tyrosine-protein kinase receptor Ret (Homo sapiens, UniProt P07949). In words: Binding affinity to recombinant N-terminal His-FLAG-GST-tagged RET (unknown origin) (658 to 1114 residues) expressed in baculovirus infected Sf9 insect cells incubated for 1 hr by TR-FRET assay.
In experiment [5] the target is MAP/microtubule affinity-regulating kinase 3 (Homo sapiens, UniProt P27448). In words: Binding affinity to recombinant full-length N-terminal His-FLAG-GST-tagged MARK3 (unknown origin) expressed in baculovirus infected Sf9 insect cells incubated for 1 hr by TR-FRET assay.
The target in experiment [6] is Tyrosine-protein kinase receptor TYRO3 (Homo sapiens, UniProt Q06418). Put plainly: Binding affinity to recombinant full-length N-terminal His-FLAG-GST-tagged TYRO3 (unknown origin) expressed in baculovirus infected Sf9 insect cells incubated for 1 hr by TR-FRET assay.
The target in experiment [7] is Tyrosine-protein kinase BTK (Homo sapiens, UniProt Q06187). In words: Binding affinity to recombinant human full-length N-terminal GST-tagged BTK expressed in baculovirus expression system using srctide as substrate incubated for 1 hr by TR-FRET assay.
For experiment [8], the target named is NUAK family SNF1-like kinase 2 (Homo sapiens, UniProt Q9H093). In words: Binding affinity to recombinant full-length N-terminal His-FLAG-tagged NUAK2 (unknown origin) expressed in baculovirus infected Sf9 insect cells incubated for 1 hr by TR-FRET assay.
For experiment [9], the target named is TRAF2 and NCK-interacting protein kinase (Homo sapiens, UniProt Q9UKE5). Put plainly: Binding affinity to recombinant full-length N-terminal His-FLAG-GST-tagged TNIK (unknown origin) (1 to 314 residues) expressed in baculovirus infected Sf9 insect cells incubated for 1 hr by TR-FRET assay.
Experiment [10] addresses Mitogen-activated protein kinase kinase kinase 11 (Homo sapiens, UniProt Q16584). In words: Binding affinity to recombinant N-terminal His-FLAG-GST-tagged MAP3K11 (unknown origin) (99 to 398 residues) expressed in baculovirus infected Sf9 insect cells incubated for 1 hr by TR-FRET assay.
Experiment [11] concerns the target Serine/threonine-protein kinase Sgk2 (Homo sapiens, UniProt Q9HBY8). In words: Binding affinity to recombinant full-length N-terminal His-FLAG-tagged SGK2 (unknown origin) expressed in baculovirus infected Sf9 insect cells incubated for 1 hr by TR-FRET assay.
Experiment [12] addresses cAMP-dependent protein kinase catalytic subunit alpha (Homo sapiens, UniProt P17612). In words: Binding affinity to recombinant human full length N-terminal GST-tagged PRKACA expressed in baculovirus expression system using kemptide as substrate incubated for 1 hr by TR-FRET assay.
Experiment [13] deals with Fibroblast growth factor receptor 1 (Homo sapiens, UniProt P11362). In words: Binding affinity to recombinant N-terminal His-FLAG-GST-tagged FGFR1 (unknown origin) (396 to 820 residues) expressed in baculovirus infected Sf9 insect cells incubated for 1 hr by TR-FRET assay.
The target of experiment [14] is Glycogen synthase kinase-3 beta (Homo sapiens, UniProt P49841). Put plainly: Binding affinity to recombinant full-length N-terminal His-FLAG-GST-tagged GSK3B (unknown origin) expressed in baculovirus infected Sf9 insect cells incubated for 1 hr by TR-FRET assay.
The target in experiment [15] is Serine/threonine-protein kinase 32C (Homo sapiens, UniProt Q86UX6). In words: Binding affinity to recombinant full-length N-terminal His-FLAG-GST-tagged STK32C (unknown origin) (66 to 486 residues) expressed in baculovirus infected Sf9 insect cells incubated for 1 hr by TR-FRET assay.
For experiment [16], the target named is Myosin light chain kinase, smooth muscle (Homo sapiens, UniProt Q15746). Put plainly: Binding affinity to recombinant full-length N-terminal His-FLAG-GST-tagged MYLK (unknown origin) (1428 to 1771 residues) expressed in baculovirus infected Sf9 insect cells incubated for 1 hr by TR-FRET assay.
Experiment [17] concerns the target Homeodomain-interacting protein kinase 4 (Homo sapiens, UniProt Q8NE63). In words: Binding affinity to recombinant full-length N-terminal His-FLAG-tagged HIPK4 (unknown origin) expressed in baculovirus infected Sf9 insect cells incubated for 1 hr by TR-FRET assay.
Experiment [18] deals with Insulin receptor (Homo sapiens, UniProt P06213). In words: Binding affinity to recombinant full-length N-terminal His-FLAG-GST-tagged INSR (unknown origin) (1005 to 1310 residues) expressed in baculovirus infected Sf9 insect cells incubated for 1 hr by TR-FRET assay.
Experiment [19] has as its target Mitogen-activated protein kinase 8 (Homo sapiens, UniProt P45983). Put plainly: Binding affinity to recombinant N-terminal His-FLAG-GST-tagged MAPK8 (unknown origin) (2 to 364 residues) expressed in baculovirus infected Sf9 insect cells incubated for 1 hr by TR-FRET assay.
Experiment [20] has as its target Inhibitor of nuclear factor kappa-B kinase subunit epsilon (Homo sapiens, UniProt Q14164). Put plainly: Binding affinity to recombinant full-length N-terminal His-FLAG-GST-tagged IKBKE (unknown origin) expressed in baculovirus infected Sf9 insect cells incubated for 1 hr by TR-FRET assay.
Experiment [21] concerns the target Ribosomal protein S6 kinase alpha-6 (Homo sapiens, UniProt Q9UK32). In words: Binding affinity to recombinant full-length N-terminal His-FLAG-tagged RPS6KA6 (unknown origin) expressed in baculovirus infected Sf9 insect cells incubated for 1 hr by TR-FRET assay.
Experiment [22] addresses Dual specificity mitogen-activated protein kinase kinase 6 (Homo sapiens, UniProt P52564). Put plainly: Binding affinity to recombinant human full length N-terminal GST-tagged MAP2K6 expressed in baculovirus expression system using p38alpha (9 to 352 residues) as substrate incubated for 1 hr by TR-FRET assay.
Experiment [23] addresses Ribosomal protein S6 kinase alpha-3 (Homo sapiens, UniProt P51812). In words: Binding affinity to recombinant human full length N-terminal GST-tagged RPS6KA3 expressed in baculovirus expression system using S6K peptide as substrate incubated for 1 hr by TR-FRET assay.
For experiment [24], the target named is Tyrosine-protein kinase Tec (Homo sapiens, UniProt P42680). Put plainly: Binding affinity to recombinant human N-terminal GST-tagged TEC (359 to 631 residues) expressed in baculovirus expression system using Srctide as substrate incubated for 1 hr by TR-FRET assay.

Chain of Insulin receptor (P06213 28-758 limits assumed): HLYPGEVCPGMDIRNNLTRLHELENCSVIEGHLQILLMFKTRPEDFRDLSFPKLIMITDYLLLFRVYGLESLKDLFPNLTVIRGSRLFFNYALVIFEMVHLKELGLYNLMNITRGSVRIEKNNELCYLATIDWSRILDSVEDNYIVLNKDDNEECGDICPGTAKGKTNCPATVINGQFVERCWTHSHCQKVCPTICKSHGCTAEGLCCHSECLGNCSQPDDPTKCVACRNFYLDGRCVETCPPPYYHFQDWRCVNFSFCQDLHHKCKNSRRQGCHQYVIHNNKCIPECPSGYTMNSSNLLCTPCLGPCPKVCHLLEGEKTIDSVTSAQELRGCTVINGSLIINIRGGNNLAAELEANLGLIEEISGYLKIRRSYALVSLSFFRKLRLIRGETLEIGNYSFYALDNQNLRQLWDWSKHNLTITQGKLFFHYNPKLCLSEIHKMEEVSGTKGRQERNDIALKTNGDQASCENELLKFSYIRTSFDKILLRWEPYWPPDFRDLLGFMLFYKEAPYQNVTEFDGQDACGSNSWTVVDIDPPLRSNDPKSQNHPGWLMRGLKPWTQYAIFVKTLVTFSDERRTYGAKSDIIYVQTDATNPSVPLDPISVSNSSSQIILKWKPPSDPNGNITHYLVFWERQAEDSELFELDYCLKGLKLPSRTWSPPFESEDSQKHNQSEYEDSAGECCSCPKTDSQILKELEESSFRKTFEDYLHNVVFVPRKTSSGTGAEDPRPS
Chain of Insulin receptor (P06213 763-1382 limits assumed): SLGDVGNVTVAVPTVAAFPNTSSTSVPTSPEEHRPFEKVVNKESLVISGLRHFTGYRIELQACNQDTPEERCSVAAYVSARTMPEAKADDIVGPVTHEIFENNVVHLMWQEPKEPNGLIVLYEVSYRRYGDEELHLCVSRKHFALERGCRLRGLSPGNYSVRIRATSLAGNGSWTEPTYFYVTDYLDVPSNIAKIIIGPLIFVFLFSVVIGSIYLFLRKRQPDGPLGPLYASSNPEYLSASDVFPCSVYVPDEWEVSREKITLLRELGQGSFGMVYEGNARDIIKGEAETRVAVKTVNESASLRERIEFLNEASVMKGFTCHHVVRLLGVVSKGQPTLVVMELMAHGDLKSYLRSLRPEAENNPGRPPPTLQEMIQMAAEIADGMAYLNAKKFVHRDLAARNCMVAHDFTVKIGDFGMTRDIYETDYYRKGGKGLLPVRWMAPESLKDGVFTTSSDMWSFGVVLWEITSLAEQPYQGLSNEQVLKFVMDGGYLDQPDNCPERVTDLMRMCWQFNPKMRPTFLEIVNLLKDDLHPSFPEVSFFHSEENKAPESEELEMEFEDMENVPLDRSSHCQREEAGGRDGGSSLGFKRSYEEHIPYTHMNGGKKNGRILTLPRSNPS
Chain of Homeodomain-interacting protein kinase 4 (Q8NE63 whole entry, the tested form may be a part): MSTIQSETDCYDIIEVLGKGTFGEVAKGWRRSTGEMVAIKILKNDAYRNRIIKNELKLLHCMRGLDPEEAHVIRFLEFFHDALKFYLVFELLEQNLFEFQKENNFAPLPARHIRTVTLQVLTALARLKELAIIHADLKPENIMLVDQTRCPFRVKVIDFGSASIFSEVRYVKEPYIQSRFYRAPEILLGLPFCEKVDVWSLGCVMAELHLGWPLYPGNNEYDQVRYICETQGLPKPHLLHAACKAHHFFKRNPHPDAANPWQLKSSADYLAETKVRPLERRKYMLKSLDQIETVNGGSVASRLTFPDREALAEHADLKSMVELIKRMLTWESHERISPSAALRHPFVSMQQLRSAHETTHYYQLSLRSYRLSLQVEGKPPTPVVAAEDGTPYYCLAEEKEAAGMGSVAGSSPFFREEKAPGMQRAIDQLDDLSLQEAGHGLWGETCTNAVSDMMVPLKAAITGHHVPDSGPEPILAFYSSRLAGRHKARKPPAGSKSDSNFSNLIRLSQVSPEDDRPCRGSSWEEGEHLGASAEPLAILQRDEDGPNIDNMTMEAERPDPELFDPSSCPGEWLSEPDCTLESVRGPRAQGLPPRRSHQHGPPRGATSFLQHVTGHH
Chain of MAP/microtubule affinity-regulating kinase 3 (P27448 whole entry): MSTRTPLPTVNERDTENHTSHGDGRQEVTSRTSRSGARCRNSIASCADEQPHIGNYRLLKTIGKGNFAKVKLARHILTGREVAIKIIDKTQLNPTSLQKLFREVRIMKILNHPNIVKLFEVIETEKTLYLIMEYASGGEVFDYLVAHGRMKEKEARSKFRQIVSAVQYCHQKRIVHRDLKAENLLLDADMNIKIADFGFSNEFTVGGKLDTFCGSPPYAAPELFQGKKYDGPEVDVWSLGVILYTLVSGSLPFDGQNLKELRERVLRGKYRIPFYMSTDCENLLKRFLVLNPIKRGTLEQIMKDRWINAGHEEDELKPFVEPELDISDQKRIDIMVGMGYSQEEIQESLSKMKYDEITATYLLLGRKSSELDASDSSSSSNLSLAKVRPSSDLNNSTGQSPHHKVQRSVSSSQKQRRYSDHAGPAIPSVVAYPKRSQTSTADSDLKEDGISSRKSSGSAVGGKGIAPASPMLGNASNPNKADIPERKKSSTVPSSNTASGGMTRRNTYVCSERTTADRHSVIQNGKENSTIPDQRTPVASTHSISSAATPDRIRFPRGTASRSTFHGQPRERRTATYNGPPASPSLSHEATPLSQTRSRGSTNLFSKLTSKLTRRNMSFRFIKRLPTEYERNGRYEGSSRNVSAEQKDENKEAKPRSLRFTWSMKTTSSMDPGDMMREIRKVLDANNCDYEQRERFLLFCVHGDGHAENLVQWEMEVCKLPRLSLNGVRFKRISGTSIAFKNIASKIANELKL
Chain of Fibroblast growth factor receptor 1 (P11362 whole entry, the tested form may be a part): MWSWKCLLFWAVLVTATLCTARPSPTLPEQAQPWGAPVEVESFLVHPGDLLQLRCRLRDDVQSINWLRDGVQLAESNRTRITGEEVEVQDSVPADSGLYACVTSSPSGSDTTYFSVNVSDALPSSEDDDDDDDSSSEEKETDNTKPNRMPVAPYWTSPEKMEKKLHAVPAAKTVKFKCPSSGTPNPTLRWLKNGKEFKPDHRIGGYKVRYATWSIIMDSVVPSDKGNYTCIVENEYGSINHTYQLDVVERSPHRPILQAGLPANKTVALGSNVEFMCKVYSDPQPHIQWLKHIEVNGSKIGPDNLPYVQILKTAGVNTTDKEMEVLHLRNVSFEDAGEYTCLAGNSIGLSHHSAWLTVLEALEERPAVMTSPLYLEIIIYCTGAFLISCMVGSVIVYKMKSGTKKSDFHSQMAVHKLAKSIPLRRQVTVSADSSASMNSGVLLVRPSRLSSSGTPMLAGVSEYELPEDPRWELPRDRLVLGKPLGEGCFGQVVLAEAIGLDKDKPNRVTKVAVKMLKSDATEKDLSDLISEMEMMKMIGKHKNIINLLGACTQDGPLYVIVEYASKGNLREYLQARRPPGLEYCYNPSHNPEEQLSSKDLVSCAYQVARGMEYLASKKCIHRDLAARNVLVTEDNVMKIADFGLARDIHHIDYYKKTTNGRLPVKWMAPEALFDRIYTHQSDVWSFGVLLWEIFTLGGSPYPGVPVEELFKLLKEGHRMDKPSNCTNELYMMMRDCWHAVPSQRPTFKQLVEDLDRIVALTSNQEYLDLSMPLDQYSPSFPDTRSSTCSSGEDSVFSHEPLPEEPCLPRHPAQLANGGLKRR
Chain of Ribosomal protein S6 kinase alpha-6 (Q9UK32 whole entry, the tested form may be a part): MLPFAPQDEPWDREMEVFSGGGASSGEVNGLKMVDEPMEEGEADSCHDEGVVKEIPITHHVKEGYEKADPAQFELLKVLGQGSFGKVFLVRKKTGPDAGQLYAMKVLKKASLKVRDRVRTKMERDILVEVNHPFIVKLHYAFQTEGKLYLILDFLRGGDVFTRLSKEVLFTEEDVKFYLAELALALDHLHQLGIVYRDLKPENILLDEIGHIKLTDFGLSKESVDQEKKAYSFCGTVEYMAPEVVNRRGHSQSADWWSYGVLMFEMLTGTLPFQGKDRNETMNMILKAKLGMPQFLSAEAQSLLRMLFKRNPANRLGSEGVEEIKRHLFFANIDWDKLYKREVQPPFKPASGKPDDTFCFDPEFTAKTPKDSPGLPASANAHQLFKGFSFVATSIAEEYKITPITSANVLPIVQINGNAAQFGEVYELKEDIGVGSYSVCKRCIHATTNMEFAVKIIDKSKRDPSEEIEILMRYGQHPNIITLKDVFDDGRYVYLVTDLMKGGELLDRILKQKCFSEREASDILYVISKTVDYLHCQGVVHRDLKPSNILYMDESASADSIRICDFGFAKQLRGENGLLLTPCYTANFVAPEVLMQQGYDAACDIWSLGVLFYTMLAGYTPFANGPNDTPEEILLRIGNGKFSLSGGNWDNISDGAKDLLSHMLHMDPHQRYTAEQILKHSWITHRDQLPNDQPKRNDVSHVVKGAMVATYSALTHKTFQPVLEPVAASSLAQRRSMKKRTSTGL
Chain of NUAK family SNF1-like kinase 2 (Q9H093 whole entry, the tested form may be a part): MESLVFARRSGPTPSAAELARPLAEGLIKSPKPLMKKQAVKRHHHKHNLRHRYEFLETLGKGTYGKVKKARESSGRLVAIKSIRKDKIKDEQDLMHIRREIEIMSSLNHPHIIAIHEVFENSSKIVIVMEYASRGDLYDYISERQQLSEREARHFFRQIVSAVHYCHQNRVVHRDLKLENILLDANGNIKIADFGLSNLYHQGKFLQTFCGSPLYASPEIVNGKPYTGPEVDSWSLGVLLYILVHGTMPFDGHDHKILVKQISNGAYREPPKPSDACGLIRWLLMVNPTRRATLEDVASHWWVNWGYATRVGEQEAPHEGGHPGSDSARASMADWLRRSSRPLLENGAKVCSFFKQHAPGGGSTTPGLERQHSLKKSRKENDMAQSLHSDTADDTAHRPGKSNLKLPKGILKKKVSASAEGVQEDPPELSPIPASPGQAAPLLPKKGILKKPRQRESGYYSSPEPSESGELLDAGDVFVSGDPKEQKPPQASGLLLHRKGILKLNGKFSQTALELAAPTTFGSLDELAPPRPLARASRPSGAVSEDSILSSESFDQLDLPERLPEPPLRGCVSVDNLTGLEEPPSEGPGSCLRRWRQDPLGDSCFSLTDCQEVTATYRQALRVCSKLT

Regarding `CO[C@@H]1[C@H](N(C)CCOCCOCCOCCNC(=O)CCC2=[N+]3C(=Cc4c(C)cc(C)n4[B-]3(F)F)C=C2)C[C@H]2O[C@]1(C)n1c3ccccc3c3c4c(c5c6ccccc6n2c5c31)C(=O)NC4`, the Kd in experiment [1] is 37 nM; in [2], 588 nM; in experiment [3], 25 nM; in [4] it was 54 nM; in experiment [5], 6 nM; in experiment [6], 1050 nM. The Kd was determined as 437 nM in experiment [7]; 11 nM in [8]; 97 nM in [9]; 4 nM in experiment [10]; 1770 nM in [11]; 42 nM in [12]. Moreover, the equilibrium dissociation constant (Kd) in experiment [13] came out at 643 nM; in experiment [14], 148 nM; in experiment [15], 326 nM; in experiment [16], 298 nM; in experiment [17] it was 472 nM; in [18], 1690 nM. Further, the Kd worked out at 536 nM in experiment [19]; 44 nM in experiment [20]; 14 nM in [21]; 16 nM in experiment [22]; 2 nM in experiment [23]; 1460 nM in experiment [24].

For `CO[C@@H]1[C@H](NCCOCCOCCOCCNC(=O)CCC2=[N+]3C(=Cc4c(C)cc(C)n4[B-]3(F)F)C=C2)C[C@H]2O[C@]1(C)n1c3ccccc3c3c4c(c5c6ccccc6n2c5c31)C(=O)NC4`, the Kd was found to be 28 nM in [1]; 586 nM in [2]; 35 nM in experiment [3]; 40 nM in experiment [4]; 13 nM in [5]; 531 nM in [6]. The Kd in experiment [7] turned out to be 374 nM; in experiment [8] it was 10 nM; in [9], 121 nM; in experiment [10], 3 nM; in experiment [11], 1220 nM; in experiment [12], 116 nM. For the same molecule, the Kd stood at 268 nM in experiment [13]; 230 nM in [14]; 448 nM in experiment [15]; 369 nM in experiment [16]; 424 nM in experiment [17]; 1860 nM in experiment [18]. For the same molecule, the Kd came to 286 nM in experiment [19]; 58 nM in [20]; 21 nM in [21]; 28 nM in [22]; 4 nM in experiment [23]; 1060 nM in [24].

As usually defined, the Kd is the free concentration of one partner at which half of the binding sites on the other are occupied at equilibrium, for simple one-to-one binding.
